Measurements from patent US5491169A, “Amino acid derivatives and their therapeutical applications” (priority 1989, dated 1996).

What was measured:
[1] = molecular target: T1, purified rabbit kidney neutral endopeptidase (Oryctolagus cuniculus, UniProt P08049); experiment: In vitro inhibitory potency against neutral endopeptidase; type: biochemical; details: purified rabbit kidney enzyme, (3H)-D-Ala2-Leu5-enkephalin, 25° C., pH 7.4, DTT 100 equivalents
T1 construct: from tissue; host or cells: rabbit kidney (purified enzyme)
T1 sequence (P08049 1-750): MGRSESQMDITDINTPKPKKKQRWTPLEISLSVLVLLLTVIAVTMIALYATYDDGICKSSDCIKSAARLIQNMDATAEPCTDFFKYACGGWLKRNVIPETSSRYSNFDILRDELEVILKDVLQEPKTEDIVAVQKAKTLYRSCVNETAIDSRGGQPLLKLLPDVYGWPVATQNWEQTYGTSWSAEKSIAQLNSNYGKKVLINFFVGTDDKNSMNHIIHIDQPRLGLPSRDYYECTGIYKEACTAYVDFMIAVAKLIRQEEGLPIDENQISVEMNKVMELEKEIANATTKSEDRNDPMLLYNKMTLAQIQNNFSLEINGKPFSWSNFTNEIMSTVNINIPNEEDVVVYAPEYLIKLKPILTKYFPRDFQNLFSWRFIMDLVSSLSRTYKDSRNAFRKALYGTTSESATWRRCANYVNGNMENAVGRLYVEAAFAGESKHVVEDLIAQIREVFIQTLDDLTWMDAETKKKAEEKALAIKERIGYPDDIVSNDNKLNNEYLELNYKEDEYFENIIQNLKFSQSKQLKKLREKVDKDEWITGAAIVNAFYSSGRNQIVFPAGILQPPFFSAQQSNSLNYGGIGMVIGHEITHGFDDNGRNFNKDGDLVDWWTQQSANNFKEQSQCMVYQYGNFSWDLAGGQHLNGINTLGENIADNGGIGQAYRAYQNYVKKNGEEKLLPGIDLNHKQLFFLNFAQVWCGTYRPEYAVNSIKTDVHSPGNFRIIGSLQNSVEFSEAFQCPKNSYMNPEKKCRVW
Procedure: (§1) The biological activity relates to the inhibition of purified aminopeptidase N and of purified neutral endopeptidase.
(§2) 1) In vitro inhibition of enkephalinase activities.
a) Inhibitory potency against neutral endopeptidase
The inhibitory power is determined on purified rabbit kidney neutral endopeptidase following the protocol described in the literature (Blumberg et al. Life Sci. (1981) 28, 301). After a preincubation for 15 minutes at 25° C., an aliquot of proteins is incubated for 20 minutes at 25° C. in the presence of 20 nmol of (^3 H)-D-Ala^2 -Leu^5 -enkephalin and the test compound in solution in Tris-HCl buffer (pH 7.4) in the presence of dithiothreitol DTT (100 equivalents relative to the inhibitor). The reaction is stopped by adding 0.2 N HCl. The tritiated metabolite (^3 H)-Tyr-D-Ala-Gly is separated from the D-Ala^2 -Leu^5 -enkephalin by chromatography on a Porapak column, and the quantity formed measured using a liquid scintillation counter.
The activity of the different compounds is expressed as 50% inhibitory concentrations (IC50), and the results are summarized in Table II.

[2] = molecular target: T2, purified porcine kidney aminopeptidase N (Sus scrofa, UniProt P15145); experiment: In vitro inhibitory potency against aminopeptidase N; type: biochemical; details: purified porcine kidney enzyme, (3H)-Leu5-enkephalin, DTT
T2 construct: purchased Boehringer, France; host or cells: porcine kidney
T2 sequence (P15145 1-963): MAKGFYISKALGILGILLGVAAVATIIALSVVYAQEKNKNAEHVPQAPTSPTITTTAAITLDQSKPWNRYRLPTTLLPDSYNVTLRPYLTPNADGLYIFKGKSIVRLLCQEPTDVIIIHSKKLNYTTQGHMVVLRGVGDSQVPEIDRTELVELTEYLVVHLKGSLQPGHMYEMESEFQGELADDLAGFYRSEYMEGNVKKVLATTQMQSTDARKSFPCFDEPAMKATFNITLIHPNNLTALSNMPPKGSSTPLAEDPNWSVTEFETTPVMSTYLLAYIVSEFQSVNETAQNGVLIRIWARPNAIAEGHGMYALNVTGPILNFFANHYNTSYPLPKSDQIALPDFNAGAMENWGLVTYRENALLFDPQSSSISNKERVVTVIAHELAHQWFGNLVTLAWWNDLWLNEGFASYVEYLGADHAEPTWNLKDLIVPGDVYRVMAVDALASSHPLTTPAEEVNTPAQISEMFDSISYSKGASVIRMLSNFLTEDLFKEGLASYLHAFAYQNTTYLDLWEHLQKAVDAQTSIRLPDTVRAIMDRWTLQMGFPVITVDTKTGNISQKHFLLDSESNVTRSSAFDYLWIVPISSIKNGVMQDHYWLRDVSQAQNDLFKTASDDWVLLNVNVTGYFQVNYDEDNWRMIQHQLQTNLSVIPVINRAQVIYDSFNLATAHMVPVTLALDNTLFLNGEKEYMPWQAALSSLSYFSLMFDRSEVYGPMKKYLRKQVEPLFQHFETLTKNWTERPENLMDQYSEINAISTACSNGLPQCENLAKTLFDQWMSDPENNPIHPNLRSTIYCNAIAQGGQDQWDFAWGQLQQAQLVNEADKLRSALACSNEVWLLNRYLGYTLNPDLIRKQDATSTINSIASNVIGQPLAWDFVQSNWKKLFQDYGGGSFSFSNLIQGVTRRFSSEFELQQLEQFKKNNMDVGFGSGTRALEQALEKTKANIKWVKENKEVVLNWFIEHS
Procedure: as §1, §2
b) Inhibitory potency against aminopeptidase N
The inhibitory power is measured on purified porcine kidney aminopeptidase (Boehringer, France). The assay is performed in a manner identical to the above, using (^3 H)-Leu^5 -enkephalin as a substrate. The metabolite formed, (^3 H)-Tyr, is separated by chromatography on a Porapak column, and the quantity formed measured using a liquid scintillation counter.

cerebral NEP = experiment: In vivo inhibition of cerebral NEP; details: mice, i.v.
Procedure: 2) "In vivo" inhibition of cerebral NEP
The enzymatic activity of cerebral NEP is compared in mice untreated or treated with a given dose of compound (approximately 2.5 mg/kg injected intravenously. The animals are sacrificed at variable times after injection of the inhibitor, and the NEP activity is determined in the brain by measuring the degradation of (^3 H)-D-Ala^2 -Leu^5 -enkephalin.
For the final compound of Example 1, injected at a dose of 2.7 μmol/kg (47.6 μg in 100 μl), the following results are obtained: […]

Hot plate test, i.v. = type: in vivo; details: Mus musculus, iv, mice, hot plate 55° C., Table III 50% analgesia
Procedure: (§3) 1) Hot .plate test: This involves the licking and jumping reflex of the mouse on a plate heated to 55° C., according to the method of Jacob et al (Arch Int. Pharmacodyn. 122 287, 1959; 1961).
1.1. Administered i.v. (100 μl in tail vein) in mice, the compounds tested display a characteristic effect both on the latency time of jumping and on latency time of licking. These effects are antagonized by naloxone (0.5 mg/kg s.c.).
The results are expressed in Table III as a % analgesia. The percentage analgesia is expressed for each dose of compound tested by the following formula: [formula]

Hot plate test, i.p. = type: in vivo; details: mice
Procedure: as §3
1.2 Administered i.p. in mice, the test compounds display a characteristic effect on the times of restraint of jumping and of licking. These effects are antagonized by naloxone (0.5 mg/kg).

[3] = Test on abdominal cramps induced by phenylbenzoquinone, i.v.; type: in vivo
Procedure: 2) Test on abdominal cramps
(Hendershot and Forsaith. J. Pharmacol. (1975), 125, 237): This test measures the number of cramps induced by i.p. injection of 100 μl of a 0.02% solution of phenylbenzoquinone. The number of cramps is counted during 10 minutes, 10 minutes after the injection. Administered i.v., the compounds decrease the number of cramps.

[4] = Tail flick test (withdrawal of the tail), i.v.; type: in vivo; details: rats, 10 mg/kg
Procedure: 3) Test of withdrawal of the tail in rats: (tail flick test): administered i.v. in rats, the compounds according to the invention produce a significant extension of the time of withdrawal of the tail. These effects are antagonized by naloxone (0.5 mg/kg s.c.).
The results are expressed as a % analgesia for the same dose (10 mg/kg) of all the compounds tested.

[5] = Tolerance after long-term administration, mice (% analgesia); type: in vivo; details: mouse, s.c. four times per 24 h, compound 8 5 mg/kg, morphine 0.5 mg/kg
Procedure: (§4) e) Study of the tolerance and addiction effects induced by long-term administration of the compound of Example 8:
(§5) 1) The compound 8 is administered s.c. four times per 24 hours at a dose of 5 mg/kg for 6 days to mice and at 10 mg/kg to rats.
(§6) Morphine (hydrochloride) is administered under the same conditions (0.5 mg/kg in mice, 2 mg/kg in rats). The control animals receive only the vehicle.

[6] = Tolerance after long-term administration, rats (% analgesia); type: in vivo; details: rat, s.c. four times per 24 h, compound 8 10 mg/kg, morphine 2 mg/kg, compound 7 dose not given
Procedure: as §4, §5, §6

SMILES | IC50 [1] | IC50 [2] | ED50 (Hot plate test, i.v.) | further results
CC(C)CC(N)CSSCC(Cc1ccccc1)C(=O)NCC(=O)OCc1ccccc1 (stereo not shown) [Example 1] | 2 nM | 5 nM | 4 mg/kg | % inhibition cerebral NEP (cerebral NEP; 2.7 μmol/kg (Example 7: same conditions), 60'): 68 ± 4%; % inhibition cerebral NEP (cerebral NEP; 2.7 μmol/kg (Example 7: same conditions), 120'): 63 ± 2%; % inhibition cerebral NEP (cerebral NEP; 2.7 μmol/kg (Example 7: same conditions), 180'): 42 ± 16%; % inhibition cerebral NEP (cerebral NEP; 2.7 μmol/kg, 15' (n = 4)): 96 ± 9%; dose in i.p. hot plate table (Hot plate test, i.p.): 10 mg/kg; % analgesia (abdominal cramps) ([3]; 1 mg/kg): 24.6% ± 8; % analgesia (abdominal cramps) ([3]; 3 mg/kg): 46.9% ± 7.9; % analgesia (abdominal cramps) ([3]; 9 mg/kg): 73.9% ± 8.2; % analgesia (tail flick) [4]: 20%
CC(C)CC(N)CSSCC(Cc1ccccc1)C(=O)NC(C)C(=O)OCc1ccccc1 (stereo not shown) [Example 2] | 2.5 nM | 5 nM | – | –
CC(C)CC(N)CSSCC(Cc1ccccc1)C(=O)NC(Cc1ccccc1)C(=O)OCc1ccccc1 (stereo not shown) [Example 3] | 1.2 nM | 5 nM | – | –
NC(CSSCC(Cc1ccccc1)C(=O)NCC(=O)OCc1ccccc1)Cc1ccccc1 (stereo not shown) [Example 4] | 2 nM | 8 nM | – | –
CSCCC(N)CSSCC(Cc1ccccc1)C(=O)NC(C)C(=O)OCc1ccccc1 (stereo not shown) [Example 6] | 1.2 nM | 2 nM | – | –
CC(NC(=O)C(CC[S+](C)[O-])CSSCC(N)CC[S+](C)[O-])C(=O)OCc1ccccc1 (stereo not shown) [Example 22] | 7 nM | 2 nM | 4.5 mg/kg | dose in i.p. hot plate table (Hot plate test, i.p.): 6 mg/kg
C[S+]([O-])CCC(N)CSSCC(Cc1ccccc1)C(=O)NC1CCCCC1C(=O)OCc1ccccc1 (stereo not shown) [Example 26] | 5 nM | 2 nM | 8 mg/kg | –
C[S+]([O-])CCC(N)CSSCC(CC[S+](C)[O-])C(=O)NC(CC(=O)OCc1ccccc1)c1ccccc1 (stereo not shown) [Example 28] | 3 nM | 2 nM | 4 mg/kg | –
C[S+]([O-])CCC(N)CSSCC(CC[S+](C)[O-])C(=O)NC1CCCCC1C(=O)OCc1ccccc1 (stereo not shown) [Example 32] | 4 nM | 2 nM | 2 mg/kg | dose in i.p. hot plate table (Hot plate test, i.p.): 5.5 mg/kg; % analgesia (tail flick) [4]: 36%
CC(C)CC(CSSCC(N)CC[S+](C)[O-])C(=O)NN1CCOCC1 (stereo not shown) [Example 33] | 5 nM | 2 nM | – | –
CN1CC[C@]23c4c5ccc(O)c4O[C@H]2[C@@H](O)C=C[C@H]3[C@H]1C5 [morphine, reference compound] | – | – | – | % analgesia relative to the controls ([5]; day 0): 100 ± 10%; % analgesia relative to the controls ([5]; day 1): 60 ± 10%; % analgesia relative to the controls ([5]; day 6): 0%; % analgesia relative to the controls ([6]; day 0): 70 ± 12%; % analgesia relative to the controls ([6]; day 1): 20 ± 3%; % analgesia relative to the controls ([6]; day 6): 0%
